Reference: US4064351A, “9-OXO-15 .xi.-HYDROXY-20-ALKYLIDENEPROST-13(TRANS)-ENOIC ACID DERIVATIVES” (Sankyo Company Limited, priority 1974, dated 1977)

Assays:
[1] = test system: air-way resistance in guinea pigs; assay: Bronchodilating activity: inhibition of histamine-induced increase in air-way resistance (variant Konzett-Rossler method); type: in vivo, guinea pig; details: Cavia porcellus; intravenous (method; head prints i.r.); histamine 2 - 3 μg/kg i.v.; parentheses = 95% confidence limit; read-out: 50% Inhibition Dose (ID50) of increase of air-way resistance in guinea pigs
Protocol: The test compounds were administered through intravenous injection to a guinea pig (body weight: 400 - 600 g) anesthetized by administration of sodium pentobarbital, and 2 - 3 μg/kg of histamine was administered through intravenous injection. Inhibitory ratio of increase in air-way resistance was determined by the variant method of Konzett-Rossler method [Archiv fur Experimentelle Pathologie und Pharmakologie, vol. 195, 71 (1940)].

[2] = test system: gastric secretion (stomach of a male rat); assay: Inhibition of gastric secretion (tetragastrin-stimulated, perfused stomach of anesthetized rat; dose raising perfusate pH by 1.0); type: in vivo, Donryu strain); details: intravenous administration for 30 minutes; urethane-anesthetized rat; tetragastrine 10 μg/kg/hr
Protocol: The method employed was essentially same as described by M. N. Ghosh and H. O. Schild in British Journal of Pharmacology and Chemotherapy, vol. 13, 54-61 (1958). Through the stomach of a male rat (Donryu strain) anesthetized by administration of urethane was perfused a physiological saline solution containing a small amount of sodium hydroxide at a rate of 1 ml/min. Then 10 μg/kg/hr of a gastric secretion stimulating agent, tetragastrine, was continuously injected into the vein of said rat until pH of the outflowing perfusate reached approximately 3 and said value remained. Thereupon, a certain amount of the test compounds was administered at a certain rate into the vein for 30 minutes, and pH of the outflowing perfusate was measured. The measurement was repeated with variation of the administering amount.

[3] = test system: bronchodilating activity in presence of a β-adrenergic blocking agent; assay: Inhibition of the bronchodilating activity by a β-adrenergic blocking agent

SMILES | ED50 [1] [µg/kg] | Dose needed to increase the pH of the outflowing perfusate by 1.0 [2] [mg/kg/hr] | inhibition of bronchodilating activity by a β-adrenergic blocking agent (in words) [3]
CCCCC[C@H](O)/C=C/[C@H]1[C@H](O)CC(=O)[C@@H]1C/C=C\CCCC(=O)O [PGE2] | 0.21 | – | –
CCCCC[C@H](O)/C=C/[C@H]1[C@H](O)CC(=O)[C@@H]1CCCCCCC(=O)O [PGE1, prostaglandin E1] | 0.14 | 0.086 | –
CC(C)(C)NCC(O)c1ccc(O)c(CO)c1 (stereo not shown) [Salbutanol] | – | – | inhibits
CC(C)=CCCC(C)CC(O)/C=C/C1C(O)CC(=O)C1CCCCCCC(=O)O (stereo not drawn) [Compound A, 9-oxo-11α,15α-dihydroxy-17β-methyl-20-isopropylideneprost-13(trans)-enoic acid] | – | 0.074 | –
CC(C)NCC(O)c1ccc(O)c(O)c1 (stereo not shown) [Isoproterenol] | – | – | inhibits
CC(C)=CCCC(C)C[C@H](O)/C=C/[C@H]1[C@H](O)CC(=O)[C@@H]1C/C=C\CCCC(=O)O (relative stereo) [Compound B, 9-oxo-11α, 15α-dihydroxy-17β-methyl-20-isopropylideneprost-5-(cis), 13(trans)-dienoic acid] | – | 0.070 | –
